Data from patent US20090306137A1, “TREATMENT FOR DEPRESSIVE DISORDERS” (priority 2006, published 2009).
Values joined by “and” are separate entries in the source; they are usually repeats but may differ in a detail not shown here. Equal values may be shown once.

What was measured:
Nea1 = assay: receptor affinity; assay type: binding; settings: high affinity
Nea2c = target: T1, Nea2c (Homo sapiens, UniProt P18825); assay: receptor affinity; assay type: binding; settings: high affinity
T1 sequence (P18825 1-462): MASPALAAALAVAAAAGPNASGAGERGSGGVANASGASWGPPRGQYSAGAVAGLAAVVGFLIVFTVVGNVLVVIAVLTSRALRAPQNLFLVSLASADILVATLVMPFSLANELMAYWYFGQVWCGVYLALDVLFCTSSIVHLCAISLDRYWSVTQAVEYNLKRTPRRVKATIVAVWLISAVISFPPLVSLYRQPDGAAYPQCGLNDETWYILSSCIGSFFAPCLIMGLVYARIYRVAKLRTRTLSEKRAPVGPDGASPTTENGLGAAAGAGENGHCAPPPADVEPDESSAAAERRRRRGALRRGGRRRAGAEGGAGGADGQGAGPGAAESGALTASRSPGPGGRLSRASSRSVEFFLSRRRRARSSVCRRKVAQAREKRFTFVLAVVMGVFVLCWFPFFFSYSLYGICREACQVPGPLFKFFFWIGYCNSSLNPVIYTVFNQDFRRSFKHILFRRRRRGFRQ

D3 = D3 (Homo sapiens, UniProt P35462); assay: receptor affinity; assay type: binding; settings: high affinity
5-HT1A = target: T2, 5-HT1A (Homo sapiens, UniProt P08908); assay: receptor affinity; assay type: binding; settings: listed both as high and as moderate affinity
T2 sequence (P08908 1-422): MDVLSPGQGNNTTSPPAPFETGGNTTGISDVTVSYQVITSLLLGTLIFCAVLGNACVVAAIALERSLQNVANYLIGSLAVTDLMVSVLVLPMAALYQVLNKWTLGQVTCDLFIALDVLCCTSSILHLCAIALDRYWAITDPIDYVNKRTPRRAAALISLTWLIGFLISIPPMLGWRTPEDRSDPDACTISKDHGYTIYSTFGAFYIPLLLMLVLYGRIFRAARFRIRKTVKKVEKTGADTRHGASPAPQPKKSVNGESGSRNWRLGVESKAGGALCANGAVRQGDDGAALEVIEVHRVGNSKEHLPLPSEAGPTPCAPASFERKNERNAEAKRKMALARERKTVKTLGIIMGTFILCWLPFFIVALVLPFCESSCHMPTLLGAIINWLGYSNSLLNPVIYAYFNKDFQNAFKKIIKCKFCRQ

[1] = target: other dopaminergic, adrenergic, and serotoninergic receptors; assay: receptor affinity; assay type: binding; settings: moderate affinity
[2] = test system: selected dopaminergic, serotoninergic, and adrenergic receptors; assay: functional action at receptors; assay type: biochemical

D3, sequence (P35462 whole entry): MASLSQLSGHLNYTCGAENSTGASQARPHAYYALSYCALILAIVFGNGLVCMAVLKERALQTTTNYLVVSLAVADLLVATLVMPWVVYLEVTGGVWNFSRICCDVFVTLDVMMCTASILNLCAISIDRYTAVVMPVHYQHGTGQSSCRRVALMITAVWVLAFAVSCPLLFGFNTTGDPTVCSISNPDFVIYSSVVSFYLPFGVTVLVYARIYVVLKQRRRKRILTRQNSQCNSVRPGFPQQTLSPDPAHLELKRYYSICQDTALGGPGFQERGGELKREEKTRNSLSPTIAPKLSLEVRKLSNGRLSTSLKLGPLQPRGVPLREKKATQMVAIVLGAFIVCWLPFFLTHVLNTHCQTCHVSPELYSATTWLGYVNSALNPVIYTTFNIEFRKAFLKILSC

Which Kd (Nea1) does the source give for COc1cc(C(C)=O)ccc1OCCCN1CCC(c2noc3cc(F)ccc23)CC1 [Iloperidone, 1-[4-[3-[4-(6-flouro-1,2-benzisoxazol-3-yl)-1-piperidinyl]propoxy]-3-methoxyphenyl]ethanone] here?
Its Kd is less than 10 nM.

And the Kd (Nea2c)?
Its Kd is less than 10 nM.

And the Kd (D3)?
Its Kd is less than 10 nM.

What about the Kd (5-HT1A) of the same compound?
The Kd was < 10 nM and 10 to 100 nM.

And the Kd [1]?
The Kd was 10 to 100 nM.

What about the “mode of action at receptors” value [2] of the same compound?
Its value is “antagonist”.
